Consider three compounds from patent EP2820422B1, “ABCG2 TRANSPORTER ASSAY” (priority 2012, dated 2013).

Data set [1] concerns the target T1, human ABCG2 protein (Homo sapiens, UniProt Q9UNQ0).
T1 sequence (Q9UNQ0 1-655): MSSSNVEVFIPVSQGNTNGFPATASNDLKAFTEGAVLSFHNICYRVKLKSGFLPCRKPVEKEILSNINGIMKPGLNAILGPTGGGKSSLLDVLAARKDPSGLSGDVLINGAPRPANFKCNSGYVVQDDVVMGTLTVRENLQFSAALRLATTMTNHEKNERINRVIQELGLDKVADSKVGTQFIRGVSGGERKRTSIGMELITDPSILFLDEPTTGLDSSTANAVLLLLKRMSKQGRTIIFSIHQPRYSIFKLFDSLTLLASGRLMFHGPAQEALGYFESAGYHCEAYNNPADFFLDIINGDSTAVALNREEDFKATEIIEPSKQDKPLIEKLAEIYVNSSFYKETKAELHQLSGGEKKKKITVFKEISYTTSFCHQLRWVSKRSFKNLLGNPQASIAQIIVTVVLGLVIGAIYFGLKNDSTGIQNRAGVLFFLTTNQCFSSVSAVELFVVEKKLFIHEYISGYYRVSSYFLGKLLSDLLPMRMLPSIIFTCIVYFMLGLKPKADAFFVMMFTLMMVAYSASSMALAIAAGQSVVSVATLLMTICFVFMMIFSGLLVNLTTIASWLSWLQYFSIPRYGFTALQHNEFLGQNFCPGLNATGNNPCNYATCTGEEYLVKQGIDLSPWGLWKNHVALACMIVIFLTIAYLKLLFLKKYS
The experiment in a line: ABCG2-ATPase activity measurement (vanadate sensitive) in cholesterol loaded, isolated Sf9 membrane vesicles. The data set is classed as biochemical. Set-up: removing the full-length human ABCG2 cDNA (G482 variant) from pcDNA3.1/ABCG2 with SacI digestion; made in house; host or cells: Sf9 insect cells (baculovirus). The method, then:
Thus, for direct measurements with ABCG2 in Sf9 membrane vesicles the membrane is loaded with cholesterol. After homogenization the sample is incubated with 2.5 mg/ml cholesterol-cyclodextrin complex (Cyclolab, Budapest) for 20 minutes at +4°C then followed by centrifugation steps.
ABCG2-Sf9 membrane vesicles (10 ug total protein) or isolated ABCG2 (0.2 ug) and separately added liposomes or reconstituted ABCG2-proteoliposome (0.2 ug) was added to assay mixture (final volume 150 ul) and preincubated for 5 or 20 minutes at 37°C when isolated ABCG2 and liposomes are used.
Reaction is started by adding Mg-ATP pH 7.0 to the reaction mixture at 3 mM and stopped after 20 or 30 minutes (for purified ABCG2) by 5% SDS.
Self-degradation of ATP is checked in each measurement by ABCG2 free samples.
Assay mixture was adapted for different setup with different type of ABCG2 samples. Assay buffer was 40 mM TRIS-MOPS pH 7.0 with 0.5 mM EGTA, 50 mM […] and 2 mM DTT.
For 'ABCG2 in Sf9 membrane vesicle' setup 5 mM Na-azide, 1 mM ouabain, were given to inhibit Sf9 intrinsic ATPases. ABC specific ATPase was measured as vanadate sensitive ATPase after determining the vanadate (1.3 mM) insensitive background.
A concentration set of K2HPO4 (10-50 ug/sample) is used as standard.

In data set [2] the target is T1, human ABCG2 protein. The conditions noted are these: cited from earlier work.

For the compound `C[C@H](CCC(=O)NCCC[N+](C)(C)CCCS(=O)(=O)[O-])[C@H]1CC[C@H]2[C@@H]3[C@H](O)C[C@@H]4C[C@H](O)CC[C@]4(C)[C@H]3C[C@H](O)[C@]12C` [CHAPS, 3-[(3-Cholamidopropyl)dimethylammonio]-1-propanesulfonate], the “effect of modifier agent on basal ABCG2-ATPase activity” value at human ABCG2 protein [1] (cholesterol loaded Sf9 membrane vesicles, concentrations below the CMC, drug stimulation (5 uM quercetin) not altered, Figures 3 and 4) was “sigificantly decreased”.
`COc1ccc2c3c([nH]c2c1)[C@H](C=C(C)C)N1C(=O)[C@@H]2CCCN2C(=O)[C@@H]1C3` [FTC]: at human ABCG2 protein [1], the “Inhibition (+ modifying agent 0.1% CHAPS)” value is given as 70% and the “Inhibition (Control)” value is 70%. For the same compound, the “inhibition of basal vanadate-sensitive ATPase activity of ABCG2” value at human ABCG2 protein [2] is “fully inhibited”.
For the compound `Cc1cn(-c2cc(NC(=O)c3ccc(C)c(Nc4nccc(-c5cccnc5)n4)c3)cc(C(F)(F)F)c2)cn1` [Nilotinib], the “effect on the ABCG2-ATPase activity” value on human ABCG2 protein [1] (isolated Sf9 cell membrane preparations, first an activation, then an inhibition, Figure 6) is “biphasic effect”.
